# Values of other authors in patent publication US9943543B2, “Treating male infertility secondary to sperm oxidative stress” (priority 2009, dated 2018).
structure (smiles),measurement,setting,value
CCC(=O)O[C@H](CC(=O)[O-])C[N+](C)(C)C [Propionyl-L-carnitine],time to peak concentrations,after oral administration,about 1 hour
same,time of rise in L-carnitine plasma levels after administration,after oral administration of propionyl-L-carnitine,2 to 6 h
